For this experiment, the target named is ShPyV VP1. The note with it: glycan coupled to BSA by reductive amination and immobilised on CM5 chip; multivalent (avidity); pH 7.4, 25 °C; kinetic fit.

As to `CC(=O)N[C@H]1[C@@H](O[C@H]2[C@@H](O)[C@@H](CO)O[C@@H](O[C@H]3[C@@H](O)[C@@H](CO)O[C@H](O[C@@H]4[C@H](O)[C@@H](O)[C@H](O[C@H]5[C@H](O)[C@@H](O)C(O)O[C@@H]5CO)O[C@@H]4CO)[C@@H]3O)[C@@H]2NC(C)=O)O[C@H](CO)[C@H](O)[C@@H]1O` (stereo partly shown) [FP, Forssman pentaose], the Kd came to 3.6 nM.

These data come from paper doi:10.1101/2023.04.10.536218v2, “A novel and highly specific Forssman antigen-binding protein from sheep polyomavirus” (biorxiv, 2023).
